Experiment [1] has as its target T1, PrP^Sc (Mesocricetus auratus, UniProt P04273). It is filed as biochemical, hamster. Particulars: for effect of chelating compounds on PrP^Sc amplification: no metal added; for effect on inhibition by CuCl2, added prior to CuCl2: 4 mM EDTA or 50 mM imidazole prior to 1 μM CuCl2; for effect on inhibition by CuCl2, added shortly after CuCl2: after 1 μM CuCl2; for IC50: read-out: IC50 of inhibition of PrP^Sc amplification.

A further experiment concerns the target Hamster Sc237 PrP^Sc (Mesocricetus auratus, UniProt P04273). It is filed as biochemical.
In experiment [2] the target is T1, PrP^Sc. In kind it is biochemical, hamster.
The target of experiment [3] is Syrian hamster Sc237 PrP27-30 / immunopurified hamster PrP^C (Mesocricetus auratus, UniProt P04273). It is filed as biochemical.
Another experiment deals with PrP^C/PrP^Sc binding (Mesocricetus auratus, UniProt P04273).
Another experiment concerns the target PrP^C (Mesocricetus auratus, UniProt P04273).
Experiment [4] deals with T1, PrP^Sc. In kind it is biochemical, hamster. The source holds these as a separate data set.
The target in experiment [5] is T1, PrP^Sc.

Like-named read-outs stand apart in the source and are kept apart here.

T1 sequence (P04273 23-231 limits assumed): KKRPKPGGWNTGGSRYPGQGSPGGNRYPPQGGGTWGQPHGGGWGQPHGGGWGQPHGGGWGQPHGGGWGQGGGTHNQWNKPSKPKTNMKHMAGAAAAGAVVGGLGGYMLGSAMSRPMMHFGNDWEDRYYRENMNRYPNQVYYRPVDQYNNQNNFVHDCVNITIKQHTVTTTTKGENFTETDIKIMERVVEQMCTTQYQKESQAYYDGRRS
Sequence of Hamster Sc237 PrP^Sc (P04273 23-231 limits assumed): as above
Sequence of Syrian hamster Sc237 PrP27-30 / immunopurified hamster PrP^C (P04273 23-231 limits assumed): as above
Sequence of PrP^C (P04273 23-231 limits assumed): as above
Sequence of PrP^C/PrP^Sc binding (P04273 23-231 limits assumed): as above

As to `Cc1ccc2ccc3ccc(C)nc3c2n1` [neocuproine], the “effect of chelating compounds on PrP^Sc amplification” value at PrP^Sc [1] is listed as “not influenced”.
Regarding `Nc1ccn([C@@H]2O[C@H](CO)[C@@H](OP(=O)(O)O)[C@H]2O)c(=O)n1` [3′-cytidine monophosphate], on Hamster Sc237 PrP^Sc (concentrations up to 1 mM), the “inhibition of PrP^Sc amplification by RNase end-product nucleotides” value is “Neither of these nucleotides inhibited PrP^Sc amplification”.
For the compound polyglutamic acid [polyglutamate], the “reconstitution of PrP^Sc amplification” value at PrP^Sc [2] (benzonase-pretreated normal brain homogenate) is on record as “failed to reconstitute PrP^Sc amplification”. In addition, the “level of stimulation compared with control stimulation by total hamster RNA” value in experiment [3] (purified substrate) is reported as “less than the level of control stimulation”.
Consider `Nc1nc2c(ncn2[C@@H]2O[C@H](CO)[C@H]3OP(=O)(O)O[C@H]32)c(=O)[nH]1` [cyclic 2′,3′-GMP, 2′,3′-cyclic guanosine monophosphate], for which the “inhibition of PrP^Sc amplification by RNase end-product nucleotides” value against Hamster Sc237 PrP^Sc is recorded as “Neither of these nucleotides inhibited PrP^Sc amplification”.
In the case of `O=C(O)CN(CCN(CC(=O)O)CC(=O)O)CC(=O)O` [EDTA], on PrP^Sc [1], the “effect on inhibition by CuCl2, added prior to CuCl2” value is “prevented inhibition of PrP^Sc amplification”; the “effect on inhibition by CuCl2, added shortly after CuCl2” value is given as “failed to rescue PrP^Sc amplification”; the “effect of chelating compounds on PrP^Sc amplification” value is reported as “not influenced”.
Regarding heparan sulfate proteoglycan, the “reconstitution of PrP^Sc amplification” value on PrP^Sc [2] is listed as “failed to reconstitute PrP^Sc amplification”. Also, the “stimulation of PrP^Sc amplification” value in experiment [3] is recorded as “stimulated PrP^Sc amplification only moderately”.
Take heparinase III: the “effect of added enzyme on PrP^Sc amplification” value (“effect of added enzyme” below) at Hamster Sc237 PrP^Sc is listed as “no effect”.
For orientation: IC50 means the concentration that gives 50% inhibition. Regarding `[Cl][Cu][Cl]` [CuCl2], the “PrP^C/PrP^Sc binding, ratio of PrP^C to PrP27-30 in the pellet” value at PrP^C/PrP^Sc binding was found to be 0.46. For the same compound, the IC50 at PrP^Sc [1] was about 1 µM. In addition, the “quantity or protease-resistance of input PrP^C or PrP^Sc molecules by themselves” value on PrP^C is reported as “did not affect the quantity or protease-resistance”.
With DNase, the “effect of added enzyme” value at Hamster Sc237 PrP^Sc is “did not decrease PrP^Sc amplification”.
Take poly(C): the “stimulation of PrP^Sc amplification using purified substrate” value (from here on “stimulation … using purified substrate”) in experiment [3] is recorded as “failed to stimulate PrP^Sc amplification at all concentrations tested”.
heparan sulfate: in experiment [3], the “stimulation of PrP^Sc amplification in the presence of copper” value is reported as “No apparent stimulation” and the “stimulation … using purified substrate” value was “no effect”.
Take “Sodium pentosan polysulfate [pentosan sulfate]”: in experiment [3], the “stimulation of PrP^Sc amplification” value is recorded as “stimulated PrP^Sc amplification only moderately”.
For the compound glycogen, the “stimulation … using purified substrate” value in experiment [3] is “did not stimulate the formation of PrP^Sc”.
As for `[Cl][Mn][Cl]` [MnCl2], at PrP^Sc [1], the “effect of divalent metal compound on PrP^Sc amplification” value was “neither MnCl2 nor CoCl2 affected PrP^Sc amplification” and the “effect of pre-addition on CuCl2-mediated inhibition of PrP^Sc amplification” value is listed as “did not influence the potency of CuCl2-mediated inhibition”.
As to `c1c[nH]cn1` [imidazole], the “effect on PrP^Sc amplification of preparation “X”” value at PrP^Sc [4] (5 mM) was “restored PrP^Sc amplification”; on PrP^Sc [4] (50 mM), “restored the ability of this preparation to serve as a substrate”; on PrP^Sc [4] (250 mM) it was “inhibited PrP^Sc amplification”. In addition, the “effect on inhibition by CuCl2, added prior to CuCl2” value on PrP^Sc [1] was “prevented inhibition of PrP^Sc amplification”. Further, the “effect on inhibition by CuCl2, added shortly after CuCl2” value on PrP^Sc [1] is “failed to rescue PrP^Sc amplification”.
As for poly(U), the “stimulation … using purified substrate” value in experiment [3] was “potently stimulated PrP^Sc amplification”.
As to apyrase, the “effect of added enzyme” value at Hamster Sc237 PrP^Sc is recorded as “no effect”.
On to `[Cl-].[Cl-].[Zn+2]` [ZnCl2], for which the IC50 at PrP^Sc [1] is about 10 µM.
For the compound polyadenylic acid [poly(A)], the “reconstitution of PrP^Sc amplification” value at PrP^Sc [2] is listed as “failed to reconstitute PrP^Sc amplification”. In addition, in experiment [3], the “concentration at which PrP^Sc amplification was stimulated” value stood at 1 µg/mL and the “threshold size required for stimulation of PrP^Sc amplification” value is given as about 300 bases. For the same compound, the “propagation of PrP^Sc conformation in serial PMCA” value on PrP^Sc [5] is “stimulated the propagation process”.

The record behind these values is patent US7407760B2 (priority 2003, dated 2008).
